Assay results: patent US6423518B1, “Design and production of mutant 2,5-diketo-D-gluconic acid reductase enzymes with altered cofactor dependency” (Rutgers, the State University, priority 2000, dated 2002)

Key:
[1] = molecular target: T1, 2,5-diketo-D-gluconic acid reductase A (Corynebacterium sp., wild type SEQ ID NO:1) variant K232Q (Corynebacterium sp., UniProt P06632, K232Q); test: Kinetic determination with purified enzyme, NADH cofactor, initial rates (microtiter plate); format: biochemical
T1 construct: GroES fragment (N); made in house; host or cells: E. coli JM109
Description: (§1) The activities of the purified enzymes were assayed in 96-well microtiter plates on a plate reader.
(§2) Equation (1) is: [formula]
(§3) B=2,5-diketo-D-gluconic acid concentration;
(§4) Kb=Michaelis Constant for 2,5-diketo-D-gluconic acid;
(§5) Et=Total enzyme concentration.
(§6) This equation is only valid when B<<Kb.
(§7) Cells containing plasmids for some of the mutant reductases were grown up on a 1 liter scale using a 10 ml inoculum from a saturated overnight culture. The cells were grown until absorbance of the culture at 600 nm was approximately 1.0. The cells were then induced by adding IPTG to a final concentration of 1 mM. The cells were harvested after growth at 37° C. for 4 hours. The cells were then pelleted by centrifugation and frozen for later use. At a later date, cells were thawed and lysed with the Bug Buster detergent (Novagen) containing Complete Protease Inhibitor Cocktail Tablets (Roche). The pH was lowered to 5.5 with 20 mM sodium acetate (NaOAc) and NaCl was added to a final concentration of 0.15 M. After 10 minutes with the detergent, the cell debris was removed by centrifugation, and the supernatant was loaded onto disposable chromatography columns containing a 10 ml bed volume of DEAE Cellulose (Sigma) for a batch weak ion exchange step. The resin was washed with 0.15 M NaCl, still in the presence of NaOAc, pH 5.5. The bound proteins were then eluted by two washes with 0.5 M NaCl.

[2] = molecular target: T2, 2,5-diketo-D-gluconic acid reductase A (Corynebacterium sp., wild type SEQ ID NO:1) variant K232M (Corynebacterium sp., UniProt P06632, K232M); test: as above; format: biochemical
T2 construct: GroES fragment (N); made in house; host or cells: E. coli JM109
Description: as §1, §2, §3, §4, §5, §6, §7

[3] = tested on: hemolymph 3-dehydroecdysone 3β-reductase from Spodoptera littoralis; conditions: read-out: KM for NADH; Chen et al. Eur. J. Biochem. 1996; cited from earlier work
[4] = molecular target: T3, 2,5-diketo-D-gluconic acid reductase A (Corynebacterium sp., wild type SEQ ID NO:1) variant K232S (Corynebacterium sp., UniProt P06632, K232S); test: Kinetic determination with purified enzyme, NADH cofactor, initial rates (microtiter plate); format: biochemical
T3 construct: GroES fragment (N); made in house; host or cells: E. coli JM109
Description: as §1, §2, §3, §4
(§8) Kia=Dissociation Constant for NADH;
as §5
(§9) However, the parameters could not be fit in this model with any accuracy, due to the large apparent value of KM for 2,5-diketo-D-gluconic acid, and the low concentration of 2,5-diketo-D-gluconic acid that was used. The 2,5-diketo-D-gluconic acid concentrations were not large enough to saturate the enzyme, so a further mathematical simplification was required. Preliminary fitting of the model indicated both kcat and Kb to be very large in comparison to Ka and Kia Therefore, the rate equation was simplified to the following equation (2): [formula]
as §6
(§10) This equation was then used to fit the kinetic data, with much better results.
(§11) Other comparisons can also be made between the different mutants using these parameters. […]
as §7, with “NaCl. The eluted material was then diluted back to 0.15 M NaCl by the addition of more 20 mM NaOAc buffer. This was then loaded onto a 4.6 mmD/100mml PEEK column (PerSeptive Biosystems) containing 50 μm DEAE Ceramic HyperD F resin (BioSepra) using an FPLC system. The high performance resin was washed with 0.1 M NaCl and the bound proteins were eluted using a linear salt gradient up to 0.4 M NaCl. Active fractions were pooled and the pH was raised to 7.0 using 50 mM bis-Tris. The pooled fractions were then concentrated by ultrafiltration in a stirred cell unit using a polyethersulfone membrane with a 10,000 MW cut-off (Millipore). The concentrate was loaded onto a Superdex-75 gel filtration column (Pharmacia) using 50 mM bis-Tris pH 7.0 with an FPLC system. The active fractions were again pooled. A small sample from the pooled fractions was electrophoresed on a polyacrylamide gel in the presence of SDS in order to insure homogeneity of the final product.” for “NaCl.”
(§12) NADPH and NADH were prepared fresh for each use in kinetic measurements. These reactions were performed in 96-well microtiter plates using a SpectraMax 190 plate reader (Molecular Devices). Varying amounts of cofactor and substrate were added to the wells and reaction was initiated by the addition of the mutant enzyme. The final volume of each reaction was 200 μl, the reactions were buffered with 50 mM bis-Tris pH 7.0, and the temperature was held at 25° C. […] Initial rate data was collected in each well, and a standard curve was generated each day in order to correlate the change in absorbance of the reaction to a change in concentration of cofactors. All measurements were performed in triplicate (at least) and the runs were averaged for use in kinetic modeling.

[5] = molecular target: T4, 2,5-diketo-D-gluconic acid reductase A (Corynebacterium sp., wild type SEQ ID NO:1) variant R235G (Corynebacterium sp., UniProt P06632, R235G); test: as above; format: biochemical
T4 construct: GroES fragment (N); made in house; host or cells: E. coli JM109
Description: as §1, §2, §3, §4, §8, §5, §9, §6, §10, §11
as §7, with “NaCl. The eluted material was then diluted back to 0.15 M NaCl by the addition of more 20 mM NaOAc buffer. This was then loaded onto a 4.6 mmD/100mml PEEK column (PerSeptive Biosystems) containing 50 μm DEAE Ceramic HyperD F resin (BioSepra) using an FPLC system. The high performance resin was washed with 0.1 M NaCl and the bound proteins were eluted using a linear salt gradient up to 0.4 M NaCl. Active fractions were pooled and the pH was raised to 7.0 using 50 mM bis-Tris. The pooled fractions were then concentrated by ultrafiltration in a stirred cell unit using a polyethersulfone membrane with a 10,000 MW cut-off (Millipore). The concentrate was loaded onto a Superdex-75 gel filtration column (Pharmacia) using 50 mM bis-Tris pH 7.0 with an FPLC system. The active fractions were again pooled. A small sample from the pooled fractions was electrophoresed on a polyacrylamide gel in the presence of SDS in order to insure homogeneity of the final product.” for “NaCl.”
as §12

[6] = molecular target: T5, 2,5-diketo-D-gluconic acid reductase A (Corynebacterium sp., wild type SEQ ID NO:1) variant R238H (Corynebacterium sp., UniProt P06632, R238H); test: as above; format: biochemical
T5 construct: GroES fragment (N); made in house; host or cells: E. coli JM109
Description: as §1, §2, §3, §4, §8, §5, §9, §6, §10, §11
as §7, with “NaCl. The eluted material was then diluted back to 0.15 M NaCl by the addition of more 20 mM NaOAc buffer. This was then loaded onto a 4.6 mmD/100mml PEEK column (PerSeptive Biosystems) containing 50 μm DEAE Ceramic HyperD F resin (BioSepra) using an FPLC system. The high performance resin was washed with 0.1 M NaCl and the bound proteins were eluted using a linear salt gradient up to 0.4 M NaCl. Active fractions were pooled and the pH was raised to 7.0 using 50 mM bis-Tris. The pooled fractions were then concentrated by ultrafiltration in a stirred cell unit using a polyethersulfone membrane with a 10,000 MW cut-off (Millipore). The concentrate was loaded onto a Superdex-75 gel filtration column (Pharmacia) using 50 mM bis-Tris pH 7.0 with an FPLC system. The active fractions were again pooled. A small sample from the pooled fractions was electrophoresed on a polyacrylamide gel in the presence of SDS in order to insure homogeneity of the final product.” for “NaCl.”
as §12

[7] = kcat/Ka apparent with NADH, relative to wild type
[8] = versus wild type, NADH as varied substrate

T4 sequence (P06632 whole entry R235G, the tested form may be a part): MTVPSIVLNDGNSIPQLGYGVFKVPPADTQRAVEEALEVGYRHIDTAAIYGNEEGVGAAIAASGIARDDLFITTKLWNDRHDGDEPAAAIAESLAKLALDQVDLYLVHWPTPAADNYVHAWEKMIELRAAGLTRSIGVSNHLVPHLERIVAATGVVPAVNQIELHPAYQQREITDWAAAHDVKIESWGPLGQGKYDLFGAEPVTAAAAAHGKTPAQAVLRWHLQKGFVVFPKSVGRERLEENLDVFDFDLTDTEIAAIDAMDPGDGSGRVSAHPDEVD
T3 sequence (P06632 whole entry K232S, the tested form may be a part): as the sequence (P06632 whole entry R235G, the tested form may be a part) above, with K232S, G235R counted along it
T5 sequence (P06632 whole entry R238H, the tested form may be a part): as the sequence (P06632 whole entry R235G, the tested form may be a part) above, with G235R, R238H counted along it
T2 sequence (P06632 whole entry K232M, the tested form may be a part): as the sequence (P06632 whole entry R235G, the tested form may be a part) above, with K232M, G235R counted along it
T1 sequence (P06632 whole entry K232Q, the tested form may be a part): as the sequence (P06632 whole entry R235G, the tested form may be a part) above, with K232Q, G235R counted along it

NC(=O)C1=CN([C@@H]2O[C@H](COP(=O)(O)OP(=O)(O)OC[C@H]3O[C@@H](n4cnc5c(N)ncnc54)[C@H](O)[C@@H]3O)[C@@H](O)[C@H]2O)C=CC1 [NADH]
Kd [1]: 3.87 ± 0.34 mM
(kcat/KbKia)/(kcat/KbKia)wt [1, 7]: 0.59
Kd [2]: 3.89 ± 0.23 mM
(kcat/KbKia)/(kcat/KbKia)wt [2, 7]: 0.55
Km [3]: 22.8 µM
Kd [4]: 2.82 ± 0.27 mM
(kcat/KbKia)/(kcat/KbKia)wt [4, 7]: 0.40
Kia/(Kia)wt ([4]; relative to wild type, NADH): 1.08
Kd [5]: 8.42 ± 0.69 mM
(kcat/KbKia)/(kcat/KbKia)wt [5, 7]: 1.53
Kia/(Kia)wt ([5]; relative to wild type, NADH): 3.24
increase of apparent Ka [5, 8]: more than 3 fold
increase of apparent kcat [5, 8]: 5 fold
Kd [6]: 2.07 ± 0.13 mM
(kcat/KbKia)/(kcat/KbKia)wt [6, 7]: 6.71
Kia/(Kia)wt ([6]; relative to wild type, NADH): 0.80
